Entries after “also recorded” stand apart in the source; their conditions may differ.
What was measured:
786-0 = experiment: NCI-60 cytotoxicity screen; format: cell-based; settings: Homo sapiens, NCI-60, 48 h, renal
Description: (§1) Compounds 3–7 were submitted to the US National Cancer Institute (NIH, Bethesda, Maryland) for screening against the NCI-60 panel of human cancer cell lines, as per standard protocol.

A498 = experiment: NCI-60 cytotoxicity screen; format: cell-based; settings: Homo sapiens, NCI-60, 48 h, renal
Description: as §1

BT 549 = experiment: NCI-60 cytotoxicity screen; format: cell-based; settings: Homo sapiens, NCI-60, 48 h, breast
Description: as §1

EKVX = experiment: NCI-60 cytotoxicity screen; format: cell-based; settings: Homo sapiens, NCI-60, 48 h, NSCLC
Description: as §1

H226 = experiment: NCI-60 cytotoxicity screen; format: cell-based; settings: Homo sapiens, NCI-60, 48 h, NSCLC
Description: as §1

H23 = experiment: NCI-60 cytotoxicity screen; format: cell-based; settings: Homo sapiens, NCI-60, 48 h, NSCLC
Description: as §1

H460 = experiment: NCI-60 cytotoxicity screen; format: cell-based; settings: Homo sapiens, NCI-60, 48 h, NSCLC
Description: as §1

HCT15 = experiment: NCI-60 cytotoxicity screen; format: cell-based; settings: Homo sapiens, HCT-15; NCI-60, 48 h, colon
Description: as §1

HOP-92 = experiment: NCI-60 cytotoxicity screen; format: cell-based; settings: Homo sapiens, NCI-60, 48 h, NSCLC
Description: as §1

HT29 = experiment: NCI-60 cytotoxicity screen; format: cell-based; settings: Homo sapiens, HT-29; NCI-60, 48 h, colon
Description: as §1

LOX IMVI = experiment: NCI-60 cytotoxicity screen; format: cell-based; settings: Homo sapiens, NCI-60, 48 h, melanoma
Description: as §1

M14 = experiment: NCI-60 cytotoxicity screen; format: cell-based; settings: Homo sapiens, NCI-60, 48 h, melanoma
Description: as §1

MALME-3M = experiment: NCI-60 cytotoxicity screen; format: cell-based; settings: Homo sapiens, read-out: MALME-3M cytotoxicity IC50, NCI-60, 48 h, melanoma
Description: as §1

MOLT-4 = experiment: NCI-60 cytotoxicity screen; format: cell-based; settings: Homo sapiens, NCI-60, 48 h, leukaemia
Description: as §1

OVCAR-4 = experiment: NCI-60 cytotoxicity screen; format: cell-based; settings: Homo sapiens, NCI-60, 48 h, ovarian
Description: as §1

PC-3 = experiment: NCI-60 cytotoxicity screen; format: cell-based; settings: Homo sapiens, NCI-60, 48 h, prostate
Description: as §1

RXF 393 = experiment: NCI-60 cytotoxicity screen; format: cell-based; settings: Homo sapiens, NCI-60, 48 h, renal
Description: as §1

SF-295 = experiment: NCI-60 cytotoxicity screen; format: cell-based; settings: Homo sapiens, NCI-60, 48 h, CNS
Description: as §1

SF-539 = experiment: NCI-60 cytotoxicity screen; format: cell-based; settings: Homo sapiens, NCI-60, 48 h, CNS
Description: as §1

SK-MEL-28 = experiment: NCI-60 cytotoxicity screen; format: cell-based; settings: Homo sapiens, NCI-60, 48 h, melanoma
Description: as §1

SK-MEL-2 = experiment: NCI-60 cytotoxicity screen; format: cell-based; settings: Homo sapiens, NCI-60, 48 h, melanoma
Description: as §1

SK-MEL-5 = experiment: NCI-60 cytotoxicity screen; format: cell-based; settings: Homo sapiens, NCI-60, 48 h, melanoma
Description: as §1

SK-OV-3 = experiment: NCI-60 cytotoxicity screen; format: cell-based; settings: Homo sapiens, NCI-60, 48 h, ovarian
Description: as §1

SN12C = experiment: NCI-60 cytotoxicity screen; format: cell-based; settings: Homo sapiens, NCI-60, 48 h, renal
Description: as §1

SNB-19 = experiment: NCI-60 cytotoxicity screen; format: cell-based; settings: Homo sapiens, NCI-60, 48 h, CNS
Description: as §1

SNB-75 = experiment: NCI-60 cytotoxicity screen; format: cell-based; settings: Homo sapiens, NCI-60, 48 h, CNS
Description: as §1

OVCAR-5 = experiment: NCI-60 cytotoxicity screen; format: cell-based; settings: Homo sapiens, NCI-60, 48 h, ovarian
T-47D = experiment: NCI-60 cytotoxicity screen; format: cell-based, human; settings: for IC50: Homo sapiens, T47D, NCI-60, 48 h, breast
acetylated histone H4 = experiment: Flow cytometric analysis of histone H4 acetylation in A2780 cells; format: cell-based, human; settings: A2780, 24 h, 5 µM or 10 µM
Procedure: The method was adapted from Ronzoni et al.[67] as previously described. A2780 cells were exposed to test compounds (0–10 µM) for 24 h, fixed with ice-cold ethanol (70% v/v) and permeabilised in the presence of 0.1% Triton-X. Non-specific protein binding was blocked using normal goat serum prior to incubation with or without primary antibodies raised against either anti-hyperacetylated Histone H4 (Penta) antibody (Upstate Biotechnology, USA) or acetylated tubulin (Sigma-Aldrich, UK), followed by incubation with FITC-conjugated secondary antibody (Dako). Cells were incubated in propidium iodide (PI) staining buffer (PBS with 50 µg/ml PI and 10 µg/ml RNase A) and subsequently analysed by flow cytometry (BD FACSCalibur; Becton Dickinson, UK). At least 15 000 events per sample were acquired and expression determined based on the detection of FITC fluorescence through the FL1 channel (530/30 nm bandpass optical filter), with cell doublets discriminated by forward/side scatter and background fluorescence omitted via comparison to unlabelled controls. Expression analysis was performed using CellQuest™ software (Becton Dickinson, UK).

[1] = tested on: AC16 ventricular cardiac cell line; experiment: MTT cellular viability assay, AC16; format: cell-based; settings: Homo sapiens, 96 h, single concentration 10 µM
Procedure: The human A2780 ovarian (#93112519) and MCF-7 breast (#86012803) cancer cell lines were obtained from the European Cell Culture Collection (ECACC; Salisbury, UK). The human cardiac ventricular AC16 cell line (#SCC109) was obtained from Merck/Millipore (UK). The A2780 and MCF-7 cell lines were maintained in RPMI-1640 medium and the AC16 cell line was maintained in DMEM/F12 medium. Culture medium of all three cell lines was supplemented with 10% heat-inactivated foetal bovine serum (FBS) and 2 mM L-glutamine, with the cells maintained in a humidified 5% CO2 atmosphere at 37 °C. The media was changed every 72h and the cells passaged via trypsinisation (Trypsin EDTA, 0.25%) before reaching confluency.
Cytotoxicity of each compound against the cell lines was assessed using the MTT assay. Cells were seeded in three replicates into 96-well plates at a density of 2 × 10^3/well for 24h to facilitate cell attachment. Media was replaced with that containing either test compound (0–10µM) for A2780 and MCF7 cell lines, single concentration (10 µM) test compound for AC16 cell line, or drug vehicle (dimethyl sulphoxide; DMSO) and the cells incubated for a further 96 h at 37 °C in a humidified 5% CO2 atmosphere. […] Chemosensitivity was thereafter assessed using a standard 3-[4, 5-dimethylthiazolyl]-2,5-diphenyltetrazolium bromide (MTT) assay, with the optical density determined at 540 nm as an indicator of cellular viability.

K562 = experiment: NCI-60 cytotoxicity screen; format: cell-based; settings: Homo sapiens, NCI-60, 48 h, leukaemia
MDA-MB-231 = experiment: NCI-60 cytotoxicity screen; format: cell-based; settings: Homo sapiens, MDA-MB-231, read-out: MDA-MB-231 cytotoxicity IC50; NCI-60, 48 h, breast

Structure (SMILES) | IC50 (786-0) | IC50 (BT 549) | IC50 (EKVX) | IC50 (H23) | IC50 (H460) | IC50 (HCT15) | IC50 (LOX IMVI) | IC50 (M14) | IC50 (OVCAR-4) | IC50 (PC-3) | IC50 (RXF 393) | IC50 (SF-295) | IC50 (SF-539) | IC50 (SK-MEL-28) | IC50 (SK-MEL-2) | IC50 (SK-MEL-5) | IC50 (SN12C) | IC50 (SNB-19) | IC50 (SNB-75) | IC50 (OVCAR-5) | also measured
Nc1ccccc1NC(=O)c1ccc(CNC(=O)OCc2cccnc2)cc1 [Compound 1, Entinostat, reference compound] | 4.97 µM | 4.14 µM | 3.26 µM | 3.22 µM | 0.83 µM | 8.47 µM | 1.06 µM | 2.35 µM | 1.31 µM | 2.79 µM | 1.49 µM | 2.56 µM | 3.19 µM | 0.66 µM | 1.1 µM | 0.74 µM | 9.4 µM | 6.34 µM | 5.07 µM | 1.05 µM | IC50 (A498): 0.36 µM; IC50 (H226): 0.6 µM; IC50 (HOP-92): 0.04 µM; IC50 (HT29): 1.03 µM; IC50 (MALME-3M): 0.58 µM; IC50 (MOLT-4): 1.93 µM; IC50 (SK-OV-3): 2.75 µM; IC50 (T-47D): 0.46 µM; acetylated histone H4 (flow cytometry) (acetylated histone H4): Increased acetylated histone H4
C=C(CN1CCN(c2ccccc2C(F)(F)F)CC1)c1ccc(C(=O)Nc2ccccc2N)cc1 [Compound 3, N-(2-aminophenyl)-4–(3-(4–(2-(trifluoromethyl)phenyl)piperazin-1-yl)prop-1-en-2-yl)benzamide] | 2.36 µM | 2.67 µM | 6.7 µM | 5.93 µM | 5.58 µM | 4.89 µM | 5.86 µM | 4.47 µM | 6.53 µM | 1.91 µM | 1.67 µM | 5.97 µM | 3.27 µM | 10.3 µM | 10.3 µM | 3.01 µM | 6.43 µM | 24.4 µM | 2.82 µM | 11.8 µM | IC50 [1]: > 10 µM; IC50 (K562): 1.54 µM; IC50 (A498): 3.55 µM; IC50 (H226): 7.78 µM; IC50 (HOP-92): 1.85 µM; IC50 (HT29): 4.09 µM; IC50 (MALME-3M): 4.18 µM; IC50 (MOLT-4): 0.13 µM; IC50 (SK-OV-3): 11 µM; IC50 (MDA-MB-231): 4.68 µM; IC50 (T-47D): 7.67 µM
C=C(CN1CCN(c2cccc(C(F)(F)F)c2)CC1)c1ccc(C(=O)Nc2ccccc2N)cc1 [Compound 4, N-(2-aminophenyl)-4–(3-(4–(3-(trifluoromethyl)phenyl)piperazin-1-yl)prop-1-en-2-yl)benzamide] | 1.1 µM | 0.33 µM | 2.92 µM | 3.72 µM | 1.56 µM | 0.48 µM | 0.12 µM | 1.05 µM | 3.94 µM | 0.62 µM | 1.62 µM | 0.54 µM | 0.54 µM | 3.4 µM | 3.44 µM | 0.57 µM | 0.29 µM | 4.1 µM | 0.01 µM | 6.62 µM | IC50 [1]: > 10 µM; IC50 (K562): 0.18 µM; IC50 (A498): 0.01 µM; IC50 (H226): 1.89 µM; IC50 (HOP-92): 1.51 µM; IC50 (HT29): 1.46 µM; IC50 (MOLT-4): 0.13 µM; IC50 (MDA-MB-231): 0.94 µM; IC50 (T-47D): 13.2 µM; fold less sensitive than to 1, T-47D (T-47D; T-47D breast cell line): > 28 fold
C=C(CN1CCN(c2ccc(C(F)(F)F)cc2)CC1)c1ccc(C(=O)Nc2ccccc2N)cc1 [Compound 5, N-(2-aminophenyl)-4–(3-(4–(4-(trifluoromethyl)phenyl)piperazin-1-yl)prop-1-en-2-yl)benzamide] | 2.85 µM | 6.92 µM | 12.4 µM | 9.48 µM | 3.44 µM | > 100 µM | 11.1 µM | 90.6 µM | 5.68 µM | 1.29 µM | 1.97 µM | 10.8 µM | 8.15 µM | > 100 µM | > 100 µM | 4.43 µM | 6.37 µM | 12.6 µM | 12.5 µM | > 100 µM | IC50 [1]: > 10 µM; IC50 (K562): 0.3 µM; IC50 (A498): 7.67 µM; IC50 (H226): 7.52 µM; IC50 (HOP-92): 3.94 µM; IC50 (HT29): 75.7 µM; IC50 (MALME-3M): 19.3 µM; IC50 (MOLT-4): 0.6 µM; IC50 (SK-OV-3): 12.1 µM; IC50 (MDA-MB-231): 3.6 µM; IC50 (T-47D): 21.8 µM
C=C(CN1CCN(c2ccccn2)CC1)c1ccc(C(=O)Nc2ccccc2N)cc1 [Compound 6, N-(2-aminophenyl)-4–(3-(4-(pyridin-2-yl)piperazin-1-yl)prop-1-en-2-yl)benzamide] | 1.21 µM | 3.94 µM | 5.33 µM | 0.94 µM | 2.81 µM | 1.91 µM | 0.93 µM | 8.47 µM | 6.35 µM | 3.78 µM | 1.55 µM | 1.39 µM | 1.5 µM | 2.52 µM | 1.87 µM | 0.73 µM | 2.36 µM | 4.86 µM | 1.48 µM | 6.1 µM | IC50 [1]: > 10 µM; IC50 (K562): 0.96 µM; IC50 (HOP-92): 5.7 µM; IC50 (SK-OV-3): 1.3 µM; IC50 (MDA-MB-231): 2.17 µM; IC50 (T-47D): 1.23 µM
C=C(CN1CCN(c2cccc(C(F)(F)F)n2)CC1)c1ccc(C(=O)Nc2ccccc2N)cc1 [Compound 7, N-(2-aminophenyl)-4–(3-(4–(6-(trifluoromethyl)pyridin-2-yl)piperazin-1-yl)prop-1-en-2-yl)benzamide] | 1.97 µM | 0.92 µM | 24.3 µM | 14.1 µM | 0.64 µM | 0.92 µM | 1.49 µM | 0.97 µM | 8.36 µM | 0.42 µM | 0.67 µM | 0.39 µM | 0.98 µM | 2.08 µM | 5.65 µM | 0.4 µM | 3.79 µM | 0.65 µM | 0.67 µM | 0.71 µM | IC50 [1]: > 10 µM; IC50 (A498): 0.97 µM; IC50 (H226): 13.4 µM; IC50 (HT29): 0.56 µM; IC50 (MALME-3M): 1.06 µM; IC50 (MOLT-4): 0.86 µM; IC50 (SK-OV-3): 2.55 µM; IC50 (MDA-MB-231): 4.62 µM; IC50 (T-47D): 3.01 µM; acetylated histone H4 (flow cytometry) (acetylated histone H4): Increased acetylated histone H4; also recorded: Increased induction in histone H4 acetylation
